{
  "source": "patent US11267800B2",
  "about": "“Cyclohexyl acid triazole azines as LPA antagonists” (BRISTOL-MYERS SQUIBB COMPANY, priority 2017, dated 2022)",
  "data": [
    {"target": "T1, human LPA1 (Homo sapiens, UniProt Q92633)", "T1 construct": "expressed in transfected cells; host or cells: Chinese hamster ovary (CHO) cells", "T1 sequence (Q92633 whole entry)": "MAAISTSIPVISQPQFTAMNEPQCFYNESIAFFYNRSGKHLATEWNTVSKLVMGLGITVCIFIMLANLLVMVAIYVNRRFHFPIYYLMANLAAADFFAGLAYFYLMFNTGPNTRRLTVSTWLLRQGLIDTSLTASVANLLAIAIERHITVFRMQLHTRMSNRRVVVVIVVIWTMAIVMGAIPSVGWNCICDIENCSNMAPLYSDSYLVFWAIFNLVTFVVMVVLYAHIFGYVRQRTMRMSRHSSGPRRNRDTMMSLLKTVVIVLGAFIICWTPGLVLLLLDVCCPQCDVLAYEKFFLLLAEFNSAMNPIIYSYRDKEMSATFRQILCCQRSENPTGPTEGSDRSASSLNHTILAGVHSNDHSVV", "assay": "LPA1 functional antagonist assay (calcium flux)", "type": "cell-based", "conditions": "CHO cells overexpressing human LPA1; inhibition of calcium flux induced by 10 nM LPA; read-out: hLPA1 IC50", "how_it_was_run": "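Dye-loaded CHO cells overexpressing human LPA1 (30 min, 37 °C) were preincubated 20 min at room temperature with compound (0.08 nM–5 μM; 0.5% DMSO; HBSS, 20 mM HEPES, 0.1% fatty-acid-free BSA), then stimulated with 10 nM LPA. IC50 is the concentration inhibiting 50% of LPA-induced calcium flux, from a 4-parameter logistic fit.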", "units": {"IC50": "nM"}, "values": [
      {"compound": "Cc1nc(-c2nnn(C)c2COc2cc(C(F)(F)F)ncn2)ccc1O[C@H]1CCC[C@H](C(=O)O)C1", "note": "[Example 295]", "IC50": 21},
      {"compound": "Cc1nc(-c2nnn(C)c2COc2cc(C(F)F)ncn2)ccc1O[C@H]1CCC[C@H](C(=O)O)C1", "note": "[Example 296]", "IC50": 16},
      {"compound": "[2H]C([2H])([2H])Oc1cc(OCc2c(-c3ccc(O[C@H]4CCC[C@H](C(=O)O)C4)c(C)n3)nnn2C)ncn1", "note": "[Example 297]", "IC50": 16},
      {"compound": "Cc1nc(-c2nnn(C)c2COc2cc(N3CCCC3)ncn2)ccc1O[C@H]1CCC[C@H](C(=O)O)C1", "note": "[Example 298]", "IC50": 121},
      {"compound": "COCc1cc(OCc2c(-c3ccc(O[C@H]4CCC[C@H](C(=O)O)C4)c(C)n3)nnn2C)ncn1", "note": "[Example 299]", "IC50": 67},
      {"compound": "CCc1cncc(OCc2c(-c3ccc(O[C@H]4CCC[C@H](C(=O)O)C4)c(C)n3)nnn2C)n1", "note": "[Example 300]", "IC50": 31},
      {"compound": "CCc1ccnc(OCc2c(-c3ccc(O[C@H]4CCC[C@H](C(=O)O)C4)c(C)n3)nnn2C)n1", "note": "[Example 301]", "IC50": 7.9},
      {"compound": "Cc1nc(-c2nnn(C)c2COc2nccc(C3CC3)n2)ccc1O[C@H]1CCC[C@H](C(=O)O)C1", "note": "[Example 302]", "IC50": 7.5},
      {"compound": "Cc1nc(-c2nnn(C)c2COc2cc(NC3CC3)ncn2)ccc1O[C@H]1CCC[C@H](C(=O)O)C1", "note": "[Example 303]", "IC50": 64},
      {"compound": "Cc1nc(-c2nnn(C)c2COc2cc(Cl)ncn2)ccc1O[C@H]1CCC[C@H](C(=O)O)C1", "note": "[Example 304]", "IC50": 66},
      {"compound": "Cc1nc(-c2nnn(C)c2COc2nccc(C(F)(F)F)n2)ccc1O[C@H]1CCC[C@H](C(=O)O)C1", "note": "[Example 305]", "IC50": 11},
      {"compound": "CCc1nccc(OCc2c(-c3ccc(O[C@H]4CCC[C@H](C(=O)O)C4)c(C)n3)nnn2C)n1", "note": "[Example 306]", "IC50": 36},
      {"compound": "COc1cncc(OCc2c(-c3ccc(O[C@H]4CCC[C@H](C(=O)O)C4)c(C)n3)nnn2C)n1", "note": "[Example 307]", "IC50": 2990},
      {"compound": "Cc1nc(-c2nnn(C)c2COc2ccnc(C(F)F)c2)ccc1O[C@H]1CCC[C@H](C(=O)O)C1", "note": "[Example 308]", "IC50": 60},
      {"compound": "COc1cncc(OCc2c(-c3ccc(O[C@H]4CCC[C@H](C(=O)O)C4)c(C)n3)nnn2C)c1", "note": "[Example 309]", "IC50": 3240},
      {"compound": "Cc1nc(-c2nnn(C)c2COc2nccc(C(F)F)n2)ccc1O[C@H]1CCC[C@H](C(=O)O)C1", "note": "[Example 310]", "IC50": 17},
      {"compound": "CCc1ncnc(OCc2c(-c3ccc(O[C@H]4CCC[C@H](C(=O)O)C4)c(C)n3)nnn2C)n1", "note": "[Example 311]", "IC50": 44},
      {"compound": "Cc1nc(-c2nnn(C)c2CNc2cc(C(F)(F)F)ncn2)ccc1O[C@H]1CCC[C@H](C(=O)O)C1", "note": "[Example 312]", "IC50": 139},
      {"compound": "Cc1nc(-c2nnn(C)c2COc2cc(-c3ccc(F)cc3)ncn2)ccc1O[C@H]1CCC[C@H](C(=O)O)C1", "note": "[Example 313]", "IC50": 41},
      {"compound": "Cc1nc(-c2nnn(C)c2COc2cc(-n3cnnc3C)ncn2)ccc1O[C@H]1CCC[C@H](C(=O)O)C1", "note": "[Example 314]", "IC50": 416},
      {"compound": "Cc1nc(-c2nnn(C)c2COc2cc(C(F)F)ccn2)ccc1O[C@H]1CCC[C@H](C(=O)O)C1", "note": "[Example 315]", "IC50": 22},
      {"compound": "Cc1nc(-c2nnn(C)c2COc2nccc(-c3cnccn3)n2)ccc1O[C@H]1CCC[C@H](C(=O)O)C1", "note": "[Example 316]", "IC50": 263},
      {"compound": "Cc1nc(-c2nnn(C)c2COc2nccc(-c3ccccn3)n2)ccc1O[C@H]1CCC[C@H](C(=O)O)C1", "note": "[Example 317]", "IC50": 72},
      {"compound": "CCc1cc(NCc2c(-c3ccc(O[C@H]4CCC[C@H](C(=O)O)C4)c(C)n3)nnn2C)ncn1", "note": "[Example 318]", "IC50": 159},
      {"compound": "Cc1nc(-c2nnn(C)c2CNc2nccc(COC(C)C)n2)ccc1O[C@H]1CCC[C@H](C(=O)O)C1", "note": "[Example 319]", "IC50": 57},
      {"compound": "Cc1nc(-c2nnn(C)c2COc2nccc(COC(C)C)n2)ccc1O[C@H]1CCC[C@H](C(=O)O)C1", "note": "[Example 320]", "IC50": 90},
      {"compound": "Cc1nc(-c2nnn(C)c2COc2nccc(COC3CC3)n2)ccc1O[C@H]1CCC[C@H](C(=O)O)C1", "note": "[Example 321]", "IC50": 37},
      {"compound": "Cc1nc(-c2nnn(C)c2CNc2nccc(COC3CC3)n2)ccc1O[C@H]1CCC[C@H](C(=O)O)C1", "note": "[Example 322]", "IC50": 44},
      {"compound": "Cc1nc(-c2nnn(C)c2COc2cc(COC3CC3)ccn2)ccc1O[C@H]1CCC[C@H](C(=O)O)C1", "note": "[Example 323]", "IC50": 71},
      {"compound": "CCCOCc1ccnc(NCc2c(-c3ccc(O[C@H]4CCC[C@H](C(=O)O)C4)c(C)n3)nnn2C)n1", "note": "[Example 324]", "IC50": 42},
      {"compound": "COCc1ccnc(OCc2c(-c3ccc(O[C@H]4CCC[C@H](C(=O)O)C4)c(C)n3)nnn2C)c1", "note": "[Example 325]", "IC50": 25},
      {"compound": "Cc1nc(-c2nnn(C)c2CNc2nccc(-n3cccn3)n2)ccc1O[C@H]1CCC[C@H](C(=O)O)C1", "note": "[Example 326]", "IC50": 99},
      {"compound": "Cc1nc(-c2nnn(C)c2COc2nccc(-n3cccn3)n2)ccc1O[C@H]1CCC[C@H](C(=O)O)C1", "note": "[Example 327]", "IC50": 335},
      {"compound": "Cc1nc(-c2nnn(C)c2CN(C)c2ncnc(C(C)C)n2)ccc1O[C@H]1CCC[C@H](C(=O)O)C1", "note": "[Example 328, (1S,3S)-3-((6-(5-(((4-Isopropyl-1,3,5-triazin-2-yl)(methyl)amino)methyl)-1-methyl-1H-1,2,3-triazol-4-yl)-2-methylpyridin-3-yl)oxy)cyclohexane-1l-carboxylic acid]", "IC50": 211},
      {"compound": "Cc1nc(-c2nnn(C)c2CNc2cc(OCC(C)C)ncn2)ccc1O[C@H]1CCC[C@H](C(=O)O)C1", "note": "[Example 329, (1S,3S)-3-((6-(5-(((6-Isobutoxypyrimidin-4-yl)amino)methyl)-1-methyl-1H-1,2,3-triazol-4-yl)-2-methylpyridin-3-yl)oxy)cyclohexane-1-carboxylicacid]", "IC50": 82},
      {"compound": "Cc1nc(-c2nnn(C)c2COc2nccc(-c3ccccc3)n2)ccc1O[C@H]1CCC[C@H](C(=O)O)C1", "note": "[Example 330, (1S,3S)-3-((2-Methyl-6-(1-methyl-5-(((4-phenylpyrimidin-2-yl)oxy)methyl)-1H-1,2,3-triazol-4-yl)pyridin-3-yl)oxy)cyclohexane-1-carboxylic acid]", "IC50": 33},
      {"compound": "Cc1nc(-c2nnn(C)c2COc2nccc(C(C)(C)C)n2)ccc1O[C@H]1CCC[C@H](C(=O)O)C1", "note": "[Example 332]", "IC50": 29},
      {"compound": "Cc1nc(-c2nnn(C)c2CNc2ncnc(C(C)C)n2)ccc1O[C@H]1CCC[C@H](C(=O)O)C1", "note": "[Example 333]", "IC50": 43},
      {"compound": "Cc1nc(-c2nnn(C)c2CNc2nccc(OCC3CC3)n2)ccc1O[C@H]1CCC[C@H](C(=O)O)C1", "note": "[Example 334]", "IC50": 19},
      {"compound": "Cc1nc(-c2nnn(C)c2CNc2nccc(OCC3(C)CC3)n2)ccc1O[C@H]1CCC[C@H](C(=O)O)C1", "note": "[Example 335]", "IC50": 18},
      {"compound": "Cn1nnc(-c2ccc(O[C@H]3CCC[C@H](C(=O)O)C3)cn2)c1CNc1nccc(OCC2(C)CC2)n1", "note": "[Example 336]", "IC50": 28},
      {"compound": "Cc1nc(-c2nnn(C)c2CNc2nccc(OCC3(F)CC3)n2)ccc1O[C@H]1CCC[C@H](C(=O)O)C1", "note": "[Example 337]", "IC50": 112},
      {"compound": "Cc1nc(-c2nnn(C)c2COc2nccc(N3CCCC3)n2)ccc1O[C@H]1CCC[C@H](C(=O)O)C1", "note": "[Example 338]", "IC50": 21},
      {"compound": "Cc1nc(-c2nnn(C)c2COc2cncc(C(F)(F)F)n2)ccc1O[C@H]1CCC[C@H](C(=O)O)C1", "note": "[Example 339]", "IC50": 99},
      {"compound": "Cc1nc(-c2nnn(C)c2COc2cncc(Oc3ccccc3)n2)ccc1O[C@H]1CCC[C@H](C(=O)O)C1", "note": "[Example 340]", "IC50": 25},
      {"compound": "Cc1nc(-c2nnn(C)c2COc2ccnc(C(F)(F)F)n2)ccc1O[C@H]1CCC[C@H](C(=O)O)C1", "note": "[Example 341]", "IC50": 16},
      {"compound": "Cc1cc(OCc2c(-c3ccc(O[C@H]4CCC[C@H](C(=O)O)C4)c(C)n3)nnn2C)ncn1", "note": "[Example 342]", "IC50": 118},
      {"compound": "Cc1nc(-c2nnn(C)c2COc2nccc(N(C)C)n2)ccc1O[C@H]1CCC[C@H](C(=O)O)C1", "note": "[Example 343]", "IC50": 100},
      {"compound": "COc1nccc(OCc2c(-c3ccc(O[C@H]4CCC[C@H](C(=O)O)C4)c(C)n3)nnn2C)n1", "note": "[Example 344]", "IC50": 378},
      {"compound": "Cc1nc(-c2nnn(C)c2COc2nccc(C(C)C)n2)ccc1O[C@H]1CCC[C@H](C(=O)O)C1", "note": "[Example 345]", "IC50": 9.5},
      {"compound": "COc1ccnc(OCc2c(-c3ccc(O[C@H]4CCC[C@H](C(=O)O)C4)c(C)n3)nnn2C)n1", "note": "[Example 346]", "IC50": 77},
      {"compound": "CCc1ccnc(OCc2c(-c3ccc(O[C@H]4CCC[C@H](C(=O)O)C4)cn3)nnn2C)n1", "note": "[Example 347]", "IC50": 73},
      {"compound": "Cn1nnc(-c2ccc(O[C@H]3CCC[C@H](C(=O)O)C3)cn2)c1COc1nccc(C2CC2)n1", "note": "[Example 348]", "IC50": 118},
      {"compound": "Cc1nc(-c2nnn(C)c2COc2nccc(N3CCC3)n2)ccc1O[C@H]1CCC[C@H](C(=O)O)C1", "note": "[Example 349]", "IC50": 1220},
      {"compound": "Cc1nc(-c2nnn(C)c2COc2ccnc(N3CCC3)n2)ccc1O[C@H]1CCC[C@H](C(=O)O)C1", "note": "[Example 350]", "IC50": 565},
      {"compound": "COc1cc(OCc2c(-c3ccc(O[C@H]4CCC[C@H](C(=O)O)C4)cn3)nnn2C)ncn1", "note": "[Example 351]", "IC50": 34},
      {"compound": "CCc1cc(OCc2c(-c3ccc(O[C@H]4CCC[C@H](C(=O)O)C4)cn3)nnn2C)ncn1", "note": "[Example 352]", "IC50": 38},
      {"compound": "Cn1nnc(-c2ccc(O[C@H]3CCC[C@H](C(=O)O)C3)cn2)c1COc1cc(C(F)F)ncn1", "note": "[Example 353]", "IC50": 81},
      {"compound": "Cc1nc(-c2nnn(C)c2COc2cc(C(F)(F)F)nc(N3CCCC3)n2)ccc1O[C@H]1CCC[C@H](C(=O)O)C1", "note": "[Example 354]", "IC50": 168},
      {"compound": "Cc1nc(-c2nnn(C)c2COc2cc(-c3ccccn3)ncn2)ccc1O[C@H]1CCC[C@H](C(=O)O)C1", "note": "[Example 355]", "IC50": 144},
      {"compound": "Cc1nc(-c2nnn(C)c2COc2cc(N3CCOCC3)ncn2)ccc1O[C@H]1CCC[C@H](C(=O)O)C1", "note": "[Example 356]", "IC50": 447},
      {"compound": "Cc1nc(-c2nnn(C)c2COc2cc(-n3cncn3)ncn2)ccc1O[C@H]1CCC[C@H](C(=O)O)C1", "note": "[Example 357]", "IC50": 120},
      {"compound": "Cc1nc(-c2nnn(C)c2COc2cc(-n3cccc3)ncn2)ccc1O[C@H]1CCC[C@H](C(=O)O)C1", "note": "[Example 358]", "IC50": 39},
      {"compound": "Cc1nc(-c2nnn(C)c2COc2cc(-n3ccnc3)ncn2)ccc1O[C@H]1CCC[C@H](C(=O)O)C1", "note": "[Example 359]", "IC50": 466}
    ]}
  ]
}
